Assay results as given in patent US12201668B2, “Adiponectin peptidomimetics formulations” (ALLYSTA PHARMACEUTICALS, INC., priority 2018, dated 2025).
Non-standard residues stand in square brackets, D forms with d. Residues, ends and D or L forms follow the SMILES beside them. Nva = CCC[C@H](N)C(=O)O

What was measured:
[1] = test system: rabbit atropine-induced dry eye model; test: Atropine-induced dry eye in rabbits, overall conclusion; assay type: in vivo, NZW rabbits
Description: (§1) The purpose of this study was to evaluate the efficacy of a topical ALY688 ophthalmic formulation according Formula 22 in Example 2 in a rabbit atropine-induced dry eye model.
(§2) Clinical evaluations of corneal fluorescein staining, tear break-up time and tear volume were determined at five timepoints during the 14 day dosing period. Pre-dose ophthalmic anterior segment slit-lamp exams with corneal fluorescein staining, Tear Volume (TV) and Tear Break-Up Time (TBUT) assessments were performed. Animals were assigned to treatment groups such that the average baseline TV and TBUT values were approximately equal across groups.
(§3) Study Groups were assigned as follows: • Group 1: Atropine+ALY688 0.4% ophthalmic TID, (n=6) • Group 2: Atropine+Vehicle ophthalmic TID, (n=6) • Group 3: Atropine only (n=4)
(§4) Test article dosing began on Day −1.
(§5) Atropine eye drops (TID) began on Day 0.
(§6) Dry eye evaluations were performed on Days 1, 3, 7, 10, and 13.
The evaluator was masked as to treatment group for all assessments.

[2] = test system: rabbit atropine-induced dry eye model; test: Slit-lamp examination of the anterior segment (McDonald-Shattuck) in atropine-induced dry eye study; assay type: in vivo, NZW rabbits; conditions: ALY688 0.4% ophthalmic TID (Formula 22); baseline and Day 13
Description: as §1, §2, §3
Examinations: Slit-lamp examinations of the anterior segment were performed at baseline and on Day 13 according to the McDonald-Shattuck Scoring System including conjunctival congestion, swelling, and discharge, corneal opacity, pannus, anterior chamber cells and flare, iris, light reflex, and lens.

[3] = test system: rabbit atropine-induced dry eye model; test: Tear Volume (TV, Schirmer Tear Test strips) in atropine-induced dry eye; assay type: in vivo, NZW rabbits
Description: as §1, §2, §3, §4, §5, §6
Tear Volume (TV): Tear volume was measured using Schirmer Tear Test strips (Intervet, Inc., Summit, NJ), by placing the strip into the lower fornix for 60 seconds and recording the mm distance of the wetted area.

[4] = test system: rabbit atropine-induced dry eye model; test: Tear Break-Up Time (TBUT) in atropine-induced dry eye; assay type: in vivo, NZW rabbits
Description: as §1, §2, §3, §4, §5, §6
Tear Breakup Time (TBUT): TBUT was determined after instillation of 6 μL of 2% sodium fluorescein in sterile saline onto the lower eyelid. After manually blinking the eye, the time for black spots or streaks to appear on the cornea under cobalt filter illumination was recorded. The procedure was conducted three times consecutively, and the average of three readings was used.

[5] = test system: rabbit atropine-induced dry eye model; test: Corneal epithelial fluorescein staining in atropine-induced dry eye; assay type: in vivo, NZW rabbits
Description: as §1, §2, §3, §4, §5, §6
Corneal epithelial staining: Corneal staining was assessed immediately after the TBUT measurement, after rinsing excess fluorescein. Fluorescein uptake was graded according to the NEI/Industry Grading System, in 5 separate areas of the cornea using a 0-3 grading scale maximum score: 15). Total staining score was calculated for each eye.

[6] = Solubility of the peptide in acetate buffer formulation; assay type: physicochemical
Description: Vehicle was prepared by dissolving propylene glycol (1.77 g) and Tyloxapol (0.1 g) in 97 mL of 35 mM of Acetic Acid/Sodium Acetate buffer, pH 4.3-4.5 by mixing until uniform. The peptide D-Asn-Ile-Pro-Nva-Leu-Tyr-D-Ser-Phe-Ala-D-Ser-NH2 (API, also referred to as ALY688 or ALY-688 herein) (1.0 g) was added to the vehicle and mixed until dissolved. The pH was adjusted with small amounts of Acetic Acid or Sodium Hydroxide. The formulation was sterile-filtered.
A concentration of 12 mg/g Acetate buffer gave a clear solution at a pH 4.5.

[7] = integrated AUC response vs baseline, p<0.005, FIG. 4

CCC[C@H](NC(=O)[C@@H]1CCCN1C(=O)[C@@H](NC(=O)[C@H](N)CC(N)=O)[C@@H](C)CC)C(=O)N[C@@H](CC(C)C)C(=O)N[C@@H](Cc1ccc(O)cc1)C(=O)N[C@H](CO)C(=O)N[C@@H](Cc1ccccc1)C(=O)N[C@@H](C)C(=O)N[C@H](CO)C(N)=O [ALY688, D-Asn-Ile-Pro-Nva-Leu-Tyr-D-Ser-Phe-Ala-D-Ser-NH2] (H-[dN]IP[Nva]LY[dS]FA[dS]-NH2; N-terminus assumed)
reduction of dry eye signs ([1]; ALY688 ophthalmic solution 0.4% TID, 14 day dosing): highly effective at reducing dry eye signs
onset of effects ([1]; after initiation of ALY688 treatment): as early as two days after initiation
anterior segment slit-lamp exam findings related to test article [2]: no abnormal findings
Tear Volume vs vehicle group on Day 13 ([3]; ALY688 0.4% TID, Day 13 (p=0.01), borderline (p=0.08) on Days 1 and 7): statistically significantly higher
Tear Volume vs vehicle control group ([3]; ALY688 0.4% TID, all timepoints): consistently higher
Tear Volume, integrated analysis at all post-baseline timepoints vs vehicle [3, 7]: highly statistically significant improvement
TBUT decrease ([4]; ALY688 0.4% TID, Day 1 of atropine treatment (vehicle group 50%)): 32%
TBUT level by Day 7 ([4]; ALY688 0.4% TID, Day 7): returned to baseline TBUT levels
TBUT compared to vehicle ([4]; ALY688 0.4% TID, Days 7, 10 and 13 (p<0,01)): statistically significant higher
TBUT level through the remainder of the study ([4]; ALY688 0.4% TID, after Day 7 to Day 13): maintained normal TBUT levels
TBUT compared to atropine-only group ([4]; ALY688 0.4% TID, all post-baseline days, 2-sample two-tailed t-test): statistically significantly higher
TBUT, integrated analysis at all post-baseline timepoints vs vehicle [4, 7]: highly statistically significant improvement
corneal fluorescein staining vs vehicle control group ([5]; ALY688 0.4% TID, all evaluation timepoints, statistically significant on Days 1, 3, 10 (p<0.05)): lower
corneal staining, integrated analysis at all post-baseline timepoints vs vehicle [5, 7]: highly statistically significant improvement
concentration that gave a clear solution ([6]; Acetate buffer, pH 4.5): 12 mg/g
solubility of the peptide ([6]; formulation of Example 1): significantly increased
